Measured values reported in patent US9833497B2, “Human originated EGF domain proteins and use of the same” (CHENGDU SOURCEBIO LIMITED-LIABILITY COMPANY, priority 2013, dated 2017).

Legend:
Assay type in all cases: cell-based
E. coli DH5α = test: Antibacterial activity: MIC and growth curve against E. coli DH5α in 96-well plate; conditions: minimal inhibitory concentration against E. coli DH5α; 96-well plate, 5×10^5 CFU/mL, 37° C., judged after 8 h
How it was run: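 MIC taken as lowest protein level with no bacterial growth, tracked by A600 every 30 min during 37 °C, 175 rpm culture. Two-fold protein series 50-12.5 μg/mL final, triplicate wells, against 5×10^5 CFU/mL of LB-washed mid-log cells.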

E. coli BL21 = test: MIC against Gram-negative bacteria: E. coli BL21; conditions: for MIC E. coli BL21: two-fold serial dilution
How it was run: (§1)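 Broth microdilution, LB medium, final inoculum 5×10^5 CFU/mL from McFarland 0.5 cultures. Recombinant human EGF domain proteins tested in two-fold steps, n=3. MIC: lowest concentration, no growth.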

Pseudomonas aeruginosa = test: MIC against Gram-negative bacteria: Pseudomonas aeruginosa; conditions: for MIC P. aeruginosa: two-fold serial dilution
How it was run: as §1

Klebsiella pneumonia = test: MIC against Gram-negative bacteria: Klebsiella pneumonia; conditions: for MIC K. pneumonia: two-fold serial dilution
How it was run: as §1

Enterobacter cloacae = test: MIC against Gram-negative bacteria: Enterobacter cloacae; conditions: for MIC E. cloacae: two-fold serial dilution
How it was run: as §1

Aeromonas hydrophila = test: MIC against Gram-negative bacteria: Aeromonas hydrophila; conditions: for MIC A. hydrophila: two-fold serial dilution
How it was run: as §1

Citrobacter diversus = test: MIC against Gram-negative bacteria: Citrobacter diversus; conditions: for MIC C. diversus: two-fold serial dilution
How it was run: as §1

Moraxella catarrhalis = test: MIC against Gram-negative bacteria: Moraxella catarrhalis; conditions: for MIC M. catarrhalis: two-fold serial dilution
How it was run: as §1

Proteus mirabilis = test: MIC against Gram-negative bacteria: Proteus mirabilis; conditions: for MIC P. mirabilis: two-fold serial dilution
How it was run: as §1

Proteus vulgaris = test: MIC against Gram-negative bacteria: Proteus vulgaris; conditions: for MIC P. vulgaris: two-fold serial dilution
How it was run: as §1

Serratia marcescens = test: MIC against Gram-negative bacteria: Serratia marcescens; conditions: for MIC S. marcescens: two-fold serial dilution
How it was run: as §1

[1] = E. coli BL21, 10 h cultivation at 37° C., 5×10^5 CFU/mL
[2] = P. aeruginosa, 10 h cultivation at 37° C., 5×10^5 CFU/mL
[3] = K. pneumonia, 10 h cultivation at 37° C., 5×10^5 CFU/mL
[4] = E. cloacae, 10 h cultivation at 37° C., 5×10^5 CFU/mL
[5] = A. hydrophila, 10 h cultivation at 37° C., 5×10^5 CFU/mL
[6] = C. diversus, 10 h cultivation at 37° C., 5×10^5 CFU/mL
[7] = M. catarrhalis, 10 h cultivation at 37° C., 5×10^5 CFU/mL
[8] = P. mirabilis, 10 h cultivation at 37° C., 5×10^5 CFU/mL
[9] = P. vulgaris, 10 h cultivation at 37° C., 5×10^5 CFU/mL
[10] = S. marcescens, 10 h cultivation at 37° C., 5×10^5 CFU/mL
[11] = 10 h cultivation at 37° C., 5×10^5 CFU/mL
[12] = E. coli BL21, 5×10^5 CFU/mL, 10 h cultivation at 37° C.
[13] = Pseudomonas aeruginosa, 5×10^5 CFU/mL, 10 h cultivation at 37° C.
[14] = Klebsiella pneumonia, 5×10^5 CFU/mL, 10 h cultivation at 37° C.
[15] = Enterobacter cloacae, 5×10^5 CFU/mL, 10 h cultivation at 37° C.
[16] = Aeromonas hydrophila, 5×10^5 CFU/mL, 10 h cultivation at 37° C.
[17] = Citrobacter diversus, 5×10^5 CFU/mL, 10 h cultivation at 37° C.
[18] = Moraxella catarrhalis, 5×10^5 CFU/mL, 10 h cultivation at 37° C.
[19] = Proteus mirabilis, 5×10^5 CFU/mL, 10 h cultivation at 37° C.
[20] = Proteus vulgaris, 5×10^5 CFU/mL, 10 h cultivation at 37° C.
[21] = Serratia marcescens, 5×10^5 CFU/mL, 10 h cultivation at 37° C.
[22] = 96-well plate, 5×10^5 CFU/mL, 37° C., 10 h

PRT1011 (RAPSCGFHHCHHGGLCLPSPKPGFPPRCACLSGYGGPDCL; listed as Homo sapiens)
50 µg/mL: MIC (E. coli BL21; E. coli BL21, 10 h cultivation at 37° C.) | MIC (Klebsiella pneumonia; K. pneumonia, 10 h cultivation at 37° C.) | MIC (Aeromonas hydrophila; A. hydrophila, 10 h cultivation at 37° C.) | MIC (Proteus vulgaris; P. vulgaris, 10 h cultivation at 37° C.)
12.5 µg/mL: MIC (E. coli DH5α) | MIC (Pseudomonas aeruginosa; P. aeruginosa, 10 h cultivation at 37° C.) | MIC (Enterobacter cloacae; E. cloacae, 10 h cultivation at 37° C.) | MIC (Moraxella catarrhalis; M. catarrhalis, 10 h cultivation at 37° C.)
25 µg/mL: MIC (Citrobacter diversus; C. diversus, 10 h cultivation at 37° C.) | MIC (Proteus mirabilis; P. mirabilis, 10 h cultivation at 37° C.) | MIC (Serratia marcescens; S. marcescens, 10 h cultivation at 37° C.)

PRT432 (DVDECATDSHQCNPTQICINTEGGYTCSCTDGYWLLEGQCL; listed as Homo sapiens)
12.5 µg/mL: MIC (Klebsiella pneumonia; [3]) | MIC (Moraxella catarrhalis; [7])
50 µg/mL: MIC (E. coli BL21; [1]) | MIC (Aeromonas hydrophila; [5]) | MIC (Proteus vulgaris; [9])
25 µg/mL: MIC (E. coli DH5α) | MIC (Pseudomonas aeruginosa; [2]) | MIC (Enterobacter cloacae; [4]) | MIC (Citrobacter diversus; [6]) | MIC (Proteus mirabilis; [8]) | MIC (Serratia marcescens; [10])

PRT302 (DIDECVEEPEICALGTCSNTEGSFKCLCPEGFSLSSSGRRCQ; listed as Homo sapiens)
12.5 µg/mL: MIC (E. coli DH5α) | MIC (Pseudomonas aeruginosa; [2]) | MIC (Enterobacter cloacae; [4]) | MIC (Aeromonas hydrophila; [5]) | MIC (Citrobacter diversus; [6]) | MIC (Moraxella catarrhalis; [7]) | MIC (Proteus mirabilis; [8]) | MIC (Serratia marcescens; [10])
50 µg/mL: MIC (Proteus vulgaris; [9])
25 µg/mL: MIC (E. coli BL21; [1]) | MIC (Klebsiella pneumonia; [3])

PRT1076 (SCLTCVGHCSNGGSCTMNSKMMPECQCPPHMTGPRCE; listed as Homo sapiens)
25 µg/mL: MIC E. coli BL21 (E. coli BL21; [11]) | MIC K. pneumonia (Klebsiella pneumonia; [11]) | MIC P. mirabilis (Proteus mirabilis; [11]) | MIC S. marcescens (Serratia marcescens; [11])
12.5 µg/mL: MIC (E. coli DH5α) | MIC P. aeruginosa (Pseudomonas aeruginosa; [11]) | MIC E. cloacae (Enterobacter cloacae; [11]) | MIC A. hydrophila (Aeromonas hydrophila; [11]) | MIC C. diversus (Citrobacter diversus; [11]) | MIC M. catarrhalis (Moraxella catarrhalis; [11]) | MIC P. vulgaris (Proteus vulgaris; [11])

PRT828 (HGAGCQGLCWCQHGAPCDPISGRCLCPAGFHGHFCE; listed as Homo sapiens)
50 µg/mL: MIC (μg/mL) E. coli BL21 (E. coli BL21; [1]) | MIC (μg/mL) K. pneumonia (Klebsiella pneumonia; [3]) | MIC (μg/mL) A. hydrophila (Aeromonas hydrophila; [5]) | MIC (μg/mL) M. catarrhalis (Moraxella catarrhalis; [7])
12.5 µg/mL: MIC (E. coli DH5α) | MIC (μg/mL) P. aeruginosa (Pseudomonas aeruginosa; [2]) | MIC (μg/mL) E. cloacae (Enterobacter cloacae; [4]) | MIC (μg/mL) C. diversus (Citrobacter diversus; [6]) | MIC (μg/mL) P. vulgaris (Proteus vulgaris; [9])
25 µg/mL: MIC (μg/mL) P. mirabilis (Proteus mirabilis; [8]) | MIC (μg/mL) S. marcescens (Serratia marcescens; [10])

PRT1465 (CECDSLGTLPGTICDPISGQCLCVPNRQGRRCNQCQPGFYISPGNATGCLP; listed as Homo sapiens)
50 µg/mL: MIC against P. aeruginosa (Pseudomonas aeruginosa; [13]) | MIC against A. hydrophila (Aeromonas hydrophila; [16]) | MIC against P. mirabilis (Proteus mirabilis; [19])
25 µg/mL: MIC against E. coli BL21 (E. coli BL21; [12]) | MIC against E. cloacae (Enterobacter cloacae; [15]) | MIC against C. diversus (Citrobacter diversus; [17]) | MIC against P. vulgaris (Proteus vulgaris; [20])
12.5 µg/mL: MIC (E. coli DH5α) | MIC against K. pneumonia (Klebsiella pneumonia; [14]) | MIC against M. catarrhalis (Moraxella catarrhalis; [18]) | MIC against S. marcescens (Serratia marcescens; [21])

PRT463 (DVNECLQLPKACAYQCHNLQGSYRCLCPPGQTLLRDGKACT; listed as Homo sapiens)
50 µg/mL: MIC (E. coli DH5α) | MIC against P. aeruginosa (Pseudomonas aeruginosa; [22]) | MIC against E. cloacae (Enterobacter cloacae; [22]) | MIC against C. diversus (Citrobacter diversus; [22]) | MIC against S. marcescens (Serratia marcescens; [22])
12.5 µg/mL: MIC against E. coli BL21 (E. coli BL21; [22]) | MIC against K. pneumonia (Klebsiella pneumonia; [22]) | MIC against A. hydrophila (Aeromonas hydrophila; [22]) | MIC against M. catarrhalis (Moraxella catarrhalis; [22]) | MIC against P. mirabilis (Proteus mirabilis; [22]) | MIC against P. vulgaris (Proteus vulgaris; [22])

PRT45 (SINSCPNNCSGHGKCTTSVSVPSQVYCECDKYWKGEACD; listed as Homo sapiens)
25 µg/mL: MIC (μg/mL) E. coli BL21 (E. coli BL21; E. coli BL21, 96-well plate, 5×10^5 CFU/mL, 37° C., 10 h) | MIC (μg/mL) K. pneumonia (Klebsiella pneumonia; Klebsiella pneumonia, 96-well plate, 5×10^5 CFU/mL, 37° C., 10 h) | MIC (μg/mL) A. hydrophila (Aeromonas hydrophila; Aeromonas hydrophila, 96-well plate, 5×10^5 CFU/mL, 37° C., 10 h) | MIC (μg/mL) M. catarrhalis (Moraxella catarrhalis; Moraxella catarrhalis, 96-well plate, 5×10^5 CFU/mL, 37° C., 10 h)
12.5 µg/mL: MIC (μg/mL) P. aeruginosa (Pseudomonas aeruginosa; Pseudomonas aeruginosa, 96-well plate, 5×10^5 CFU/mL, 37° C., 10 h) | MIC (μg/mL) C. diversus (Citrobacter diversus; Citrobacter diversus, 96-well plate, 5×10^5 CFU/mL, 37° C., 10 h) | MIC (μg/mL) P. vulgaris (Proteus vulgaris; Proteus vulgaris, 96-well plate, 5×10^5 CFU/mL, 37° C., 10 h)
50 µg/mL: MIC (E. coli DH5α) | MIC (μg/mL) E. cloacae (Enterobacter cloacae; Enterobacter cloacae, 96-well plate, 5×10^5 CFU/mL, 37° C., 10 h) | MIC (μg/mL) P. mirabilis (Proteus mirabilis; Proteus mirabilis, 96-well plate, 5×10^5 CFU/mL, 37° C., 10 h) | MIC (μg/mL) S. marcescens (Serratia marcescens; Serratia marcescens, 96-well plate, 5×10^5 CFU/mL, 37° C., 10 h)

PRT1364 (GELKCPNGCSGHGRCVNGQCVCDEGYTGEDCS; listed as Homo sapiens)
50 µg/mL: MIC against K. pneumonia (Klebsiella pneumonia; [14])
25 µg/mL: MIC (E. coli DH5α) | MIC against P. aeruginosa (Pseudomonas aeruginosa; [13]) | MIC against E. cloacae (Enterobacter cloacae; [15]) | MIC against A. hydrophila (Aeromonas hydrophila; [16])
12.5 µg/mL: MIC against E. coli BL21 (E. coli BL21; [12]) | MIC against C. diversus (Citrobacter diversus; [17]) | MIC against M. catarrhalis (Moraxella catarrhalis; [18]) | MIC against P. mirabilis (Proteus mirabilis; [19]) | MIC against P. vulgaris (Proteus vulgaris; [20]) | MIC against S. marcescens (Serratia marcescens; [21])

PRT1092 (ILLGCTHQQCLNNGTCIPHFQDGQHGFSCLCPSGYTGSLCE; listed as Homo sapiens)
25 µg/mL: MIC (E. coli DH5α) | MIC P. aeruginosa (Pseudomonas aeruginosa; [11]) | MIC E. cloacae (Enterobacter cloacae; [11]) | MIC M. catarrhalis (Moraxella catarrhalis; [11]) | MIC P. vulgaris (Proteus vulgaris; [11]) | MIC S. marcescens (Serratia marcescens; [11])
50 µg/mL: MIC E. coli BL21 (E. coli BL21; [11]) | MIC P. mirabilis (Proteus mirabilis; [11])
12.5 µg/mL: MIC K. pneumonia (Klebsiella pneumonia; [11]) | MIC A. hydrophila (Aeromonas hydrophila; [11]) | MIC C. diversus (Citrobacter diversus; [11])
